Measurements as given in patent US11098010B2 (priority 2017, dated 2021).
Where a name gives a salt, the structure may show the parent alone. Read-outs that look alike come from different tables or passages of the source.

Tested on: HBV rcDNA in HepDE19 cells
Assay: HepDE19 assay with bDNA quantitation of HBV rcDNA
Type: cell-based, hepatitis B virus (HBV)
[1] = HepDE19 cells, inhibition of rcDNA formation, 7 day incubation, top concentration 25 μM, read-out: DE-19 bDNA EC50
[2] = Hepatitis B virus, HepDE19, 168 h, HepDE19 cells, inhibition of rcDNA formation, 7 day incubation, top concentration 25 μM, read-out: DE-19 bDNA EC50
[3] = Hepatitis B virus, HepDE19, 168 h, read-out: DE-19 bDNA EC50 (μM), HepDE19 cells, inhibition of rcDNA formation, 7 day incubation, top concentration 25 μM

In the case of `O=C(NC1CSc2c(C(=O)Nc3ccc(F)c(Cl)c3)ccc(F)c21)OCc1ccccn1` (stereo not shown) [Compound 66, O-Pyridin-2-ylmethyl, N-(7-((3-chloro-4-fluorophenyl)carbamoyl)-4-fluoro-2,3-dihydrobenzo[b]thiophen-3-yl) carbamate], the EC50 [1] is reported as 0.44 µM.

Work on `O=C(N[C@H]1CCc2c(C(=O)Nc3ccc(F)c(Cl)c3)ccc(F)c21)OCc1cccc[n+]1[O-]` [Compound 67, (S)-2-((((4-((3-Chloro-4-fluorophenyl)carbamoyl)-7-fluoro-2,3-dihydro-1H-inden-1-yl)carbamoyl)oxy)methyl)pyridine 1-oxide] yielded an EC50 [2] of 0.31 µM.

`C[C@H](OC(=O)N[C@H]1CCc2c(C(=O)Nc3ccc(F)c(Cl)c3)ccc(F)c21)c1ccccn1` [Compound 68, O—(S)-1-(Pyridin-2-yl)ethyl, N—((S)-4-((3-chloro-4-fluorophenyl)carbamoyl)-7-fluoro-2,3-dihydro-1H-inden-1-yl) carbamate] gave an EC50 [3] of 0.39 µM.

`O=C(N[C@H]1CCc2c(C(=O)Nc3ccc(F)c(Cl)c3)ccc(F)c21)OC[C@@H]1CCCN1` [Compound 69, O—(S)-Pyrrolidin-2-ylmethyl, N—((S)-4-((3-chloro-4-fluorophenyl)carbamoyl)-7-fluoro-2,3-dihydro-1H-inden-1-yl) carbamate Hydrochloride] gave an EC50 [3] of 5.1 µM.

Work on `O=C(N[C@H]1CCc2c(C(=O)Nc3ccc(F)c(Cl)c3)ccc(F)c21)OCCC(F)(F)F` [Compound 70, O-3,3,3-Trifluoropropyl, N—(S)-(4-((3-chloro-4-fluorophenyl)carbamoyl)-7-fluoro-2,3-dihydro-1H-inden-1-yl) carbamate] yielded an EC50 [2] of 0.29 µM.

With `Cn1ccc(COC(=O)N[C@H]2CCc3c(C(=O)Nc4ccc(F)c(Cl)c4)ccc(F)c32)n1` [Compound 71, O-(1-Methyl-1H-pyrazol-3-yl)methyl, N—(S)-(4-((3-chloro-4-fluorophenyl)carbamoyl)-7-fluoro-2,3-dihydro-1H-inden-1-yl) carbamate] the EC50 [2] was 0.06 µM.

`O=C1C[C@@H](OC(=O)N[C@H]2CCc3c(C(=O)Nc4ccc(F)c(Cl)c4)ccc(F)c32)CN1` [Compound 72, O—(R)-5-Oxopyrrolidin-3-yl, N—((S)-4-((3-chloro-4-fluorophenyl)carbamoyl)-7-fluoro-2,3-dihydro-1H-inden-1-yl) carbamate] gave an EC50 [2] of 0.24 µM.

With `Cc1cccc(COC(=O)N[C@H]2CCc3c(C(=O)Nc4ccc(F)c(Cl)c4)ccc(F)c32)n1` [Compound 73, O-(6-Methylpyridin-2-yl)methyl, N—(S)-(4-((3-chloro-4-fluorophenyl)carbamoyl)-7-fluoro-2,3-dihydro-1H-inden-1-yl) carbamate] the EC50 [2] was 0.25 µM.

With `O=C(NCc1ccccn1)O[C@H]1CCc2c(C(=O)Nc3ccc(F)c(Cl)c3)ccc(F)c21` [Compound 74, N—(S)-4-((3-Chloro-4-fluorophenyl)carbamoyl)-7-fluoro-2,3-dihydro-1H-inden-1-yl, O-(pyridin-2-ylmethyl) carbamate] the EC50 [2] was 1.6 µM.

`COCC(=O)N[C@H]1CCc2c(C(=O)Nc3ccc(F)c(Cl)c3)ccc(F)c21` [Compound 75, (S)—N-(3-Chloro-4-fluorophenyl)-7-fluoro-1-(2-methoxyacetamido)-2,3-dihydro-1H-indene-4-carboxamide] gave an EC50 [2] of 1.4 µM.

`O=C(N[C@H]1CCc2c(C(=O)Nc3ccc(F)c(Cl)c3)ccc(F)c21)OCCF` [Compound 76, O-2-Fluoroethyl, N—(S)-(4-((3-chloro-4-fluorophenyl)carbamoyl)-7-fluoro-2,3-dihydro-1H-inden-1-yl) carbamate] showed an EC50 [1] of 0.11 µM.

`CC(=O)N[C@H]1CCc2c(C(=O)Nc3ccc(F)c(Cl)c3)ccc(F)c21` [Compound 77, (S)-1-Acetamido-N-(3-chloro-4-fluorophenyl)-7-fluoro-2,3-dihydro-1H-indene-4-carboxamide] gave an EC50 [2] of 0.2 µM.

For `O=C(N[C@H]1CCc2c(C(=O)Nc3ccc(F)c(Cl)c3)ccc(F)c21)OCc1cnccn1` [Compound 78, O-Pyrazin-2-ylmethyl, N—(S)-(4-((3-chloro-4-fluorophenyl)carbamoyl)-7-fluoro-2,3-dihydro-1H-inden-1-yl) carbamate], the EC50 [3] was 0.09 µM.

For `O=C(N[C@H]1CCc2c(C(=O)Nc3ccc(F)c(Cl)c3)ccc(F)c21)OCc1ncccn1` [Compound 79, O-Pyrimidin-2-ylmethyl, N—(S)-(4-((3-chloro-4-fluorophenyl)carbamoyl)-7-fluoro-2,3-dihydro-1H-inden-1-yl) carbamate], the EC50 [3] was 0.12 µM.

`O=C(N[C@H]1CCc2c(C(=O)Nc3ccc(F)c(Cl)c3)ccc(F)c21)OCc1cc(Cl)ccn1` [Compound 80, O-(4-Chloropyridin-2-yl)methyl, N—(S)-(4-((3-chloro-4-fluorophenyl)carbamoyl)-7-fluoro-2,3-dihydro-1H-inden-1-yl) carbamate Hydrochloride] showed an EC50 [3] of 0.33 µM.

In the case of `O=C(Nc1ccc(F)c(Cl)c1)c1ccc(F)c2c1CC[C@@H]2O` [Compound 81, (S)—N-(3-Chloro-4-fluorophenyl)-7-fluoro-1-hydroxy-2,3-dihydro-1H-indene-4-carboxamide], the EC50 [2] is reported as 0.67 µM.

`O=C(N[C@H]1CCc2c(C(=O)Nc3ccc(F)c(Cl)c3)ccc(F)c21)OCc1ccon1` [Compound 82, O-Isoxazol-3-ylmethyl, N—(S)-(4-((3-chloro-4-fluorophenyl)carbamoyl)-7-fluoro-2,3-dihydro-1H-inden-1-yl) carbamate] gave an EC50 [3] of 0.13 µM.

In the case of `O=C(N[C@H]1CCc2c(C(=O)Nc3ccc(F)c(Cl)c3)ccc(F)c21)OCCc1ccccn1` [Compound 83, O-2-(Pyridin-2-yl)ethyl, N—(S)-(4-((3-chloro-4-fluorophenyl)carbamoyl)-7-fluoro-2,3-dihydro-1H-inden-1-yl) carbamate Hydrochloride], the EC50 [3] is reported as 0.18 µM.

For `O=C(N[C@H]1CCc2c(C(=O)Nc3ccc(F)c(Cl)c3)ccc(F)c21)OCC(F)F` [Compound 84, O-2,2-Difluoroethyl, N—(S)-(4-((3-chloro-4-fluorophenyl)carbamoyl)-7-fluoro-2,3-dihydro-1H-inden-1-yl) carbamate], the EC50 [2] was 0.17 µM.

For `O=C(N[C@H]1CCc2c(C(=O)Nc3ccc(F)c(Cl)c3)ccc(F)c21)OCc1ccncn1` [Compound 85, O-Pyrimidin-4-ylmethyl, N—(S)-(4-((3-chloro-4-fluorophenyl)carbamoyl)-7-fluoro-2,3-dihydro-1H-inden-1-yl) carbamate], the EC50 [2] was 0.58 µM.

`O=C(N[C@H]1CCc2c(C(=O)Nc3ccc(F)c(Cl)c3)ccc(F)c21)OCCCN1CCCC1=O` [Compound 86, O-3-(2-Oxopyrrolidin-1-yl)propyl, N—(S)-(4-((3-chloro-4-fluorophenyl)carbamoyl)-7-fluoro-2,3-dihydro-1H-inden-1-yl) carbamate] showed an EC50 [3] of 0.43 µM.

`Cc1cccn2cc(COC(=O)N[C@H]3CCc4c(C(=O)Nc5ccc(F)c(Cl)c5)ccc(F)c43)nc12` [Compound 87, O-(8-Methylimidazo[1,2-a]pyridin-2-yl)methyl, N—(S)-(4-((3-chloro-4-fluorophenyl)carbamoyl)-7-fluoro-2,3-dihydro-1H-inden-1-yl) carbamate Hydrochloride] was tested, and the EC50 [3] was 0.2 µM.

For `O=C(N[C@H]1CCc2c(C(=O)Nc3ccc(F)c(Cl)c3)ccc(F)c21)OCC(F)(F)F` [Compound 88, O-2,2,2-Trifluoroethyl, N—(S)-(4-((3-chloro-4-fluorophenyl)carbamoyl)-7-fluoro-2,3-dihydro-1H-inden-1-yl) carbamate], the EC50 [3] was 0.21 µM.

`CNC(=O)O[C@H]1CCc2c(C(=O)Nc3ccc(F)c(Cl)c3)ccc(F)c21` [Compound 89, O—(S)-4-((3-Chloro-4-fluorophenyl)carbamoyl)-7-fluoro-2,3-dihydro-1H-inden-1-yl, N-methyl Carbamate] gave an EC50 [2] of 0.56 µM.

`O=C(OCc1ccccn1)O[C@H]1CCc2c(C(=O)Nc3ccc(F)c(Cl)c3)ccc(F)c21` [Compound 90, (S)-4-((3-Chloro-4-fluorophenyl)carbamoyl)-7-fluoro-2,3-dihydro-1H-inden-1-yl (pyridin-2-ylmethyl) carbonate] gave an EC50 [2] of 1.9 µM.

`O=C(N[C@H]1CCc2c(C(=O)Nc3ccc(F)c(Cl)c3)ccc(F)c21)OCc1cncs1` [Compound 91, O-Thiazol-5-ylmethyl, N—(S)-(4-((3-chloro-4-fluorophenyl)carbamoyl)-7-fluoro-2,3-dihydro-1H-inden-1-yl) carbamate] was tested, and the EC50 [2] was 0.07 µM.

With `O=C(N[C@H]1CCc2c(C(=O)Nc3ccc(F)c(Cl)c3)ccc(F)c21)OCc1nccs1` [Compound 92, O-Thiazol-2-ylmethyl, N—(S)-(4-((3-chloro-4-fluorophenyl)carbamoyl)-7-fluoro-2,3-dihydro-1H-inden-1-yl) carbamate] the EC50 [2] was 0.18 µM.

In the case of `O=C(N[C@H]1CCc2c(C(=O)Nc3ccc(F)c(Cl)c3)ccc(F)c21)OCc1cocn1` [Compound 93, O-Oxazol-4-ylmethyl, N—(S)-(4-((3-chloro-4-fluorophenyl)carbamoyl)-7-fluoro-2,3-dihydro-1H-inden-1-yl) carbamate], the EC50 [2] is reported as 0.49 µM.

Compound `O=C(N[C@H]1CCc2c(C(=O)Nc3ccc(F)c(Cl)c3)ccc(F)c21)OCc1ncco1` [Compound 94, O-Oxazol-2-ylmethyl, N—(S)-(4-((3-chloro-4-fluorophenyl)carbamoyl)-7-fluoro-2,3-dihydro-1H-inden-1-yl) carbamate] has an EC50 [2] of 0.07 µM.

`O=C(N[C@H]1CCc2c(C(=O)Nc3ccc(F)c(Cl)c3)ccc(F)c21)OCc1cnco1` [Compound 95, O-Oxazol-5-ylmethyl, N—(S)-(4-((3-chloro-4-fluorophenyl)carbamoyl)-7-fluoro-2,3-dihydro-1H-inden-1-yl) carbamate] showed an EC50 [2] of 0.06 µM.

In the case of `O=C(N[C@H]1CCc2c(C(=O)Nc3ccc(F)c(Cl)c3)ccc(F)c21)OCCn1ccnc1` [Compound 96, O-2-(1H-Imidazol-1-yl)ethyl, N—(S)-(4-((3-chloro-4-fluorophenyl)carbamoyl)-7-fluoro-2,3-dihydro-1H-inden-1-yl) carbamate Hydrochloride], the EC50 [3] is reported as 0.3 µM.
